The assay addresses T1, hM5 (Homo sapiens, UniProt P08912).
T1 construct: expressed in transfected cells
T1 sequence (P08912 1-532): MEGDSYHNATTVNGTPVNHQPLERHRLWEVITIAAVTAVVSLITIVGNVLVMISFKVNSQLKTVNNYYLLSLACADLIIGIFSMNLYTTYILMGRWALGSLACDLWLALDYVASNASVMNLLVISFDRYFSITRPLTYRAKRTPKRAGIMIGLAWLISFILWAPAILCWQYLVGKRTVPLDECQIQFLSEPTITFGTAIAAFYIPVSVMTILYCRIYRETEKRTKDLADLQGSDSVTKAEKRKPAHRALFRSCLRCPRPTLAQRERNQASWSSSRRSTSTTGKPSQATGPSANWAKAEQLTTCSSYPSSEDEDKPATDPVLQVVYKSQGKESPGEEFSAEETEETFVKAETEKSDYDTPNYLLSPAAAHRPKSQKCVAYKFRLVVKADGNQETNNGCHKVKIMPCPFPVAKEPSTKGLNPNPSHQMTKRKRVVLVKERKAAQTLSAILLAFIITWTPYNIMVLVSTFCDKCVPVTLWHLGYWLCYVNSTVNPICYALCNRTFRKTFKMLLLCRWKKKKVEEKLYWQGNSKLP
The assay is described as follows: Calcium mobilization concentration-response (IC50 vs EC80 acetylcholine), CHO hM5. The assay is classed as cell-based. The note with it: CELL LINE hM5; calcium mobilization, EC80 acetylcholine addition; read-out: IC50. In short, it runs like this: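 IC50 values derive from percent maximal acetylcholine response after an EC80 ACh addition, measured as kinetic calcium fluorescence (static ratio, max−min). Test compounds were added 140 s before agonist. Cells: stable hM5-CHO in HEPES-buffered HBSS with 2.5 mM probenecid, pH 7.4; ≥3 independent triplicate determinations.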
For orientation: Calcium flux is commonly read through the fluorescence of an indicator in the cells.

This is an account of results in patent US20230183237A1, “COMPETITIVE AND NONCOMPETITIVE INHIBITORS OF THE MUSCARINIC ACETYLCHOLINE RECEPTOR M5” (Vanderbilt University, priority 2020, published 2023).

The term IC50 denotes the midpoint of a concentration-inhibition curve. In the case of `Cc1nn(C)c(Cl)c1S(=O)(=O)N1CCC(c2cn3ncnc3cc2C(F)(F)F)CC1` [Compound 275, 6-(1-((5-chloro-1,3-dimethyl-1H-pyrazol-4-yl)sulfonyl)piperidin-4-yl)-7-(trifluoromethyl)-[1,2,4]triazolo[1,5-a]pyridine], the concentration for half-maximal inhibition (IC50) stood at 61 nM.

Regarding `Cc1nn(C(F)F)cc1S(=O)(=O)N1CCC(c2cn3ncnc3cc2C(F)(F)F)CC1` [Compound 276, 6-(1-((1-(difluoromethyl)-3-methyl-1H-pyrazol-4-yl)sulfonyl)piperidin-4-yl)-7-(trifluoromethyl)-[1,2,4]triazolo[1,5-a]pyridine], the IC50 was > 10000 nM.

For the compound `Cc1ncc(S(=O)(=O)N2CCC(c3cn4ncnc4cc3C(F)(F)F)CC2)n1C` [Compound 277, 6-(1-((1,2-dimethyl-1H-imidazol-5-yl)sulfonyl)piperidin-4-yl)-7-(trifluoromethyl)-[1,2,4]triazolo[1,5-a]pyridine], the IC50 worked out at 234 nM.

Turning to `Cc1nc(C)c(S(=O)(=O)N2CCC(c3cn4ncnc4cc3C(F)(F)F)CC2)s1` [Compound 279, 2,4-dimethyl-5-((4-(7-(trifluoromethyl)-[1,2,4]triazolo[1,5-a]pyridin-6-yl)piperidin-1-yl)sulfonyl)thiazole], the IC50 was > 10000 nM.

As to `Cc1cc(S(=O)(=O)N2CCC(c3cn4ncnc4cc3C(F)(F)F)CC2)c(C)s1` [Compound 280, 6-(1-((2,5-dimethylthiophen-3-yl)sulfonyl)piperidin-4-yl)-7-(trifluoromethyl)-[1,2,4]triazolo[1,5-a]pyridine], the IC50 is 1900 nM.

Consider `Cc1nn(C)c(C(F)(F)F)c1S(=O)(=O)N1CCC(c2cn3ncnc3cc2C(F)(F)F)CC1` [Compound 281, 6-(1-((1,3-dimethyl-5-(trifluoromethyl)-1H-pyrazol-4-yl)sulfonyl)piperidin-4-yl)-7-(trifluoromethyl)-[1,2,4]triazolo[1,5-a]pyridine], for which the half-maximal inhibitory concentration (IC50) amounted to 1400 nM.

Take `O=S(=O)(c1cnn2c1CCCC2)N1CCC(c2cn3ncnc3cc2Cl)CC1` [Compound 283, 7-chloro-6-(1-((4,5,6,7-tetrahydropyrazolo[1,5-a]pyridin-3-yl)sulfonyl)piperidin-4-yl)-[1,2,4]triazolo[1,5-a]pyridine]: the 50% inhibitory concentration (IC50) came to 7.3 nM.

Regarding `O=S(=O)(c1cnn2c1CCC2)N1CCC(c2ccc3ncnn3c2)CC1` [Compound 285, 6-(1-((5,6-dihydro-4H-pyrrolo[1,2-b]pyrazol-3-yl)sulfonyl)piperidin-4-yl)-[1,2,4]triazolo[1,5-a]pyridine], the half-inhibitory concentration (IC50) worked out at 51 nM.

Regarding `Cc1ncc(S(=O)(=O)N2CCC(c3ccc4ncnn4c3)CC2)n1C` [Compound 286, 6-(1-((1,2-dimethyl-1H-imidazol-5-yl)sulfonyl)piperidin-4-yl)-[1,2,4]triazolo[1,5-a]pyridine], the IC50 amounted to 2000 nM.

Take `O=S(=O)(c1cnn2c1CCCC2)N1CCC(c2ccc3ncnn3c2)CC1` [Compound 287, 6-(1-((4,5,6,7-tetrahydropyrazolo[1,5-a]pyridin-3-yl)sulfonyl)piperidin-4-yl)-[1,2,4]triazolo[1,5-a]pyridine]: the IC50 turned out to be 237 nM.

On to `Cc1c(S(=O)(=O)N2CCC(c3ccc4ncnn4c3)CC2)cnn1C` [Compound 288, 6(1-((1,5-dimethyl-1H-pyrazol-4-yl)sulfonyl)piperidin-4-yl)-[1,2,4]triazolo[1,5-a]pyridine], for which the IC50 was found to be 358 nM.

Turning to `Cc1nc2[nH]cnc2cc1C1CCN(S(=O)(=O)c2cnn3c2CCC3)CC1` [Compound 289, 6-(1-((5,6-dihydro-4H-pyrrolo[1,2-b]pyrazol-3-yl)sulfonyl)piperidin-4-yl)-5-methyl-3H-imidazo[4,5-b]pyridine], the half-maximal inhibitory concentration (IC50) was > 10000 nM.

`Cc1cc2ncnn2cc1C1CCN(S(=O)(=O)c2cccc3nn(C)cc23)CC1` [Compound 290, 7-methyl-6-(1-((2-methyl-2H-indazol-4-yl)sulfonyl)piperidin-4-yl)-[1,2,4]triazolo[1,5-a]pyridine]: the IC50 was determined as 1200 nM.

Consider `Cc1c(S(=O)(=O)N2CCC(c3cn4ncnc4cc3Cl)CC2)cnn1C` [Compound 291, 7-chloro-6-(1-((1,5-dimethyl-1-pyrazol-4-yl)sulfonyl)piperidin-4-yl)-[1,2,4]triazolo[1,5-a]pyridine], for which the IC50 stood at 36 nM.

For the compound `O=S(=O)(c1cnn2c1CCC2)N1CCC(c2cn3ncnc3cc2Cl)CC1` [Compound 293, 7-chloro-6-(1-((5,6-dihydro-4H-pyrrolo[1,2-b]pyrazol-3-yl)sulfonyl)piperidin-4-yl)-[1,2,4]triazolo[1,5-a]pyridine], the half-maximal inhibitory concentration (IC50) was found to be 12 nM.

As for `Cc1ncc(S(=O)(=O)N2CCC(c3cn4ncnc4cc3Cl)CC2)n1C` [Compound 294, 7-chloro-6-(1-((1,2-dimethyl-1H-imidazol-5-yl)sulfonyl)piperidin-4-yl)-[1,2,4]triazolo[1,5-a]pyridine], the 50% inhibitory concentration (IC50) amounted to 22 nM.

Turning to `Cn1ncc(S(=O)(=O)N2CCC(c3cn4ncnc4cc3Cl)CC2)c1C(F)F` [Compound 295, 7-chloro-6-(1-((5-(difluoromethyl)-1-methyl-1H-pyrazol-4-yl)sulfonyl)piperidin-4-yl)-[1,2,4]triazolo[1,5-a]pyridine], the half-inhibitory concentration (IC50) worked out at 19 nM.

Take `CCc1cc2ncnn2cc1C1CCN(S(=O)(=O)c2cnn(C)c2C)CC1` [Compound 297, 6-(1-((1,5-dimethyl-1H-pyrazol-4-yl)sulfonyl)piperidin-4-yl)-7-ethyl-[1,2,4]triazolo[1,5-a]pyridine]: the IC50 turned out to be 73 nM.

For the compound `CCc1cc2ncnn2cc1C1CCN(S(=O)(=O)c2cnn3c2CCC3)CC1` [Compound 299, 6-(1-((5,6-dihydro-4H-pyrrolo[1,2-b]pyrazol-3-yl)sulfonyl)piperidin-4-yl)-7-ethyl-[1,2,4]triazolo[1,5-a]pyridine], the half-inhibitory concentration (IC50) amounted to 26 nM.

As for `CCc1cc2ncnn2cc1C1CCN(S(=O)(=O)c2cnc(C)n2C)CC1` [Compound 300, 6-(1-((1,2-dimethyl-1H-imidazol-5-yl)sulfonyl)piperidin-4-yl)-7-ethyl-[1,2,4]triazolo[1,5-a]pyridine], the IC50 was 227 nM.

With `CCc1cc2ncnn2cc1C1CCN(S(=O)(=O)c2cnn(C)c2C(F)F)CC1` [Compound 301, 6-(1-((5-(difluoromethyl)-1-methyl-1H-pyrazol-4-yl)sulfonyl)piperidin-4-yl)-7-ethyl-[1,2,4]triazolo[1,5-a]pyridine], the 50% inhibitory concentration (IC50) came to 85 nM.

As to `CCc1cc2ncnn2cc1C1CCN(S(=O)(=O)c2cnn3c2CCCC3)CC1` [Compound 302, 7-ethyl-6-(1-((4,5,6,7-tetrahydropyrazolo[1,5-a]pyridin-3-yl)sulfonyl)piperidin-4-yl)-[1,2,4]triazolo[1,5-a]pyridine], the 50% inhibitory concentration (IC50) is 54 nM.

With `Cc1c(C2CCN(S(=O)(=O)c3cnc(C)n3C)CC2)cn2ncnc2c1F` [Compound 304, 6-(1-((1,2-dimethyl-1H-imidazol-5-yl)sulfonyl)piperidin-4-yl)-8-fluoro-7-methyl-[1,2,4]triazolo[1,5-a]pyridine], the 50% inhibitory concentration (IC50) was 43 nM.

Consider `Cc1c(C2CCN(S(=O)(=O)c3cnn4c3CCCC4)CC2)cn2ncnc2c1F` [Compound 305, 8-fluoro-7-methyl-6-(1-((4,5,6,7-tetrahydropyrazolo[1,5-a]pyridin-3-yl)sulfonyl)piperidin-4-yl)-[1,2,4]triazolo[1,5-a]pyridine], for which the IC50 was determined as 12 nM.
